Experimental data: patent publication EP1581790B1, “PEPTIDES THAT HOME TO TUMOR LYMPHATIC VASCULATURE AND METHODS OF USING SAME” (The Burnham Institute, priority 2001, dated 2009)
Where no end group is shown, it is not given here.

Assays:
[1] = test system: primary MDA-MB-435 breast carcinoma tumor cell suspensions; assay: Ex vivo binding of phage to primary 435 tumor cell suspensions; design: species or system Human; settings: addition of synthetic peptide
Description: Several ex vivo selections were performed with 435 tumor cell suspensions prepared from MDA-MB-435 breast carcinoma xenografts grown in nude mice, as described below. Anti-mouse CD31 was used to deplete the tumor cell mixture of blood vessel endothelial cells prior to rescuing phage bound to the CD31-negative cell population. By the third ex vivo round, the phage pool bound a tumor cell suspension approximately 350-fold over control, nonrecombinant phage. The ex vivo preselected phage pool then was subjected to an in vivo selection round by injection into the tail vein of a nude mouse bearing an MDA-MB-435 tumor. Phage were then rescued from harvested xenograft tumor tissue.
Xenografts, tumor cell suspensions and ex vivo selections were performed essentially as follows. Nude Balb/c mice were subcutaneously injected with 1 x 10^6 MDA-MB-435 tumor cells to generate breast carcinoma xenografts. Human MDA-MB-435 breast carcinoma xenograft tumors were harvested 9 to 12 weeks after implantation, and tumor cell suspensions prepared using collagenase (0.5 mg/ml, Sigma).
The suspension was subjected to serial washes with 1% BSA in DME to remove unbound phage. […]

[2] = test system: Cultured MDA-MB-435 cells; assay: Cytotoxicity in cell culture, trypan blue staining; type: cell-based
Description: Cultured MDA-MB-435 cells were incubated with a control peptide (CGEKRTRGC; SEQ ID NO: 3) or with CGNKRTRGC (SEQ ID NO: 1) at 37°C for 1, 2 or 4 hours. After staining with trypan blue, which is taken up by cells that are dead or dying, the total number of cells were counted, and the percentage of trypan blue stained cells determined. […] In particular, after four hours incubation, at least 7-fold greater trypan blue uptake was evident in cell cultures incubated with peptide SEQ ID NO: 1 as compared to cultures incubated with control peptide.

normal tissues = assay: Localization of fluorescein-labeled peptide in normal tissues after intravenous injection; type: in vivo, mice
Description: Several normal tissues also were studied for localization of the CGNKRTRGC (SEQ ID NO: 1) peptide.
Detection of fluorescent peptides and biotin-conjugated tomato lectin was performed as follows. Fluorescein-conjugated peptide CGNKRTRGC (SEQ ID NO: 1) was prepared as described above. The peptide (100 µg in 200 µl of PBS) was injected into the tail vein of mice bearing MDA-MB-435 breast carcinoma tumors. After 10 minutes, biotin-conjugated lycopersicon esculentum (tomato) lectin (100 µg in 200 µl of PBS; Vector; Burlingame, California) was also injected into the tail vein. After 5 minutes, the mouse was perfused through the heart with 4% paraformaldehyde. Tissues were removed and frozen in O.C.T. embedding medium (Tissue-Tek; Torrence, California). Blood vessels were visualized by detecting the tomato lectin with streptavidin-conjugated Alexa 594 (Molecular Probes; Eugene, Oregon). Green staining indicated the presence of peptide SEQ ID NO: 1, while red staining indicated the presence of tomato lectin.

[3] = test system: MDA-MB-435 human breast carcinoma cell xenografts; assay: Tumor treatment study; type: in vivo, nude mice; settings: 67 nmol intravenously twice a week; after about two weeks of treatment; Figure 8
Description: A tumor treatment study was performed using MDA-MB-435 human breast carcinoma cell xenografts prepared by subcutaneously injecting 1 x 10^6 cells in 200 µl PBS into nude mice. Mice (five per group) were treated intravenously twice a week with 67 nmol CGNKRTRGC peptide (SEQ ID NO: 1) or with PBS starting four weeks after tumor implantation. Tumor volumes were measured once a week for four weeks.

[4] = test system: MDA-MB-435 tumor lymphatic vasculature; assay: Localization in 435 tumors after intravenous injection, with blood vessel and lymphatic markers
[5] = concentration of 10 µM; cited from earlier work
[6] = test system: cultured MDA-MB-435 tumor cells; assay: Internalization and subcellular localization in cultured MDA-MB-435 cells; type: cell-based, Human; settings: one to five hours at 37°C; Figure 2
Description: A fluorescein-conjugated CGNKRTRGC (SEQ ID NO: 1) peptide was utilized to further analyze cellular internalization and subcellular localization. […] Natl. Acad. Sci. 97:13003 (2000). The fluorescein-conjugated peptides were incubated with cultured MDA-MB-435 tumor cells for one to five hours at 37°C. […] Cultured 435 cells also internalized the CGNKRTRGC (SEQ ID NO: 1) phage, although the phage accumulated in the cytoplasm of the cells.

cultured KRIB cells = assay: Internalization of fluorescein-labeled peptide by cultured KRIB cells; type: cell-based, human

CGNKRTRGC [CGNKRTRGC (SEQ ID NO: 1)]
inhibition of binding of phage displaying the same peptide sequence [1]: inhibited binding | trypan blue uptake relative to cultures incubated with control peptide ([2]; four hours incubation, 37°C, control peptide SEQ ID NO: 3): at least 7 fold | cytotoxic effect as compared to control peptide SEQ ID NO: 3 ([2]; later time points (1, 2 or 4 hours), Figure 7): significantly enhanced cytotoxic effect | fluorescence in normal tissues (normal tissues): seen only in the kidney tubuli | mean tumor volume compared to mice administered PBS alone [3]: at least several fold less | accumulation in single cells within the tumor ([4]; fluorescein-labeled peptide): accumulated in VEGFR-3 positive single cells within the tumor | co-localization with the macrophage marker F4/80 ([4]; mouse, in vivo): lack of co-localization

D(KLAKLAK)2
mitochondrial swelling [5]: marked mitochondrial swelling

fluorescein-conjugated CGNKRTRGC (SEQ ID NO: 1) peptide: Fluorescein-conjugated CGNKRTRGC (SEQ ID NO: 1) peptide (cysteine pairing not given here; also: fluorescein-conjugated)
uptake and subcellular localization of fluorescein-conjugated peptide [6]: taken up by the 435 cells and translocated into the cell nucleus | internalization by cultured KRIB cells (cultured KRIB cells): internalized | internalization and nuclear localization in vivo ([4]; Figure 5): internalized and transported into nuclei in vivo | internalization and nuclear localization in vivo ([4]; Figure 5, listed as fluorescein-conjugated peptide (SEQ ID NO: 1)): accumulated in the nuclei lining the vessel-like structures | co-localization with blood vessels labeled with biotin-conjugated tomato lectin ([4]; Figures 3A-C): notable lack of co-localization | co-localization with lymphatic markers VEGFR-3 and LYVE-1 ([4]; intravenously injected, Figure 5): co-localized with VEGFR-3 and LYVE-1 staining in 435 tumor tissue | blood vessel markers CD31 and Meca-32 on the vessels in which the substance localized ([4]; tail vein injection): negative for the CD31 and Meca-32 blood vessel markers | localization within 435 tumor ([4]; tail vein injection): localized in vessel-like structures and in individual cells within the tumor
